Peptide text beside a SMILES is read from it. * marks the point of attachment. Cbz = O=C(OCc1ccccc1)*

6 molecules from patent US12186353B2, “Method of reducing neuronal microtubule binding protein Tau (Tau) levels” (ADAERATA, LIMITED PARTNERSHIP, priority 2018, dated 2025) can be followed below.

One series deals with Tau::GFP fusion protein. Kind of series: Intracellular Tau::GFP fluorescence in stable inducible HEK293 cells with proteasome or lysosome inhibitor. The format is cell-based. Conditions: inhibitor 25 uM for 4 h before fixation. How it is done:
FIG. 7A Stable inducible cell line HEK293 that express a Tau::GFP fusion protein was transfected with Control Myc or Numb72::Myc, and the Tau::GFP expression was activated by adding Doxycycline 6 h later. The cells were fixed 48 h later and stained for Myc. FIG. 7B. The mean intensity (±SEM) of intracellular Tau::GFP fluorescence in transfected cells was quantified. Cells were treated with vehicle, MG132 (a proteasome inhibitor, 25 uM) or Chloroquine (a lysosome inhibitor, 25 uM) for 4 h before fixation and Myc staining. Quantification represents mean intensity +/− SEM, *p≤0.01; Anova 1-way test.
The potential role of the proteasome and of the lysosome on the ability of Numb to reduce Tau levels was assessed. A stable inducible cell line (HEK293) expressing a Tau::GFP fusion protein was transfected with
Numb72 or a control empty vector. The intracellular Tau::GFP levels was compared when the cells were treated with a proteasome inhibitor (MG132), a lysosome inhibitor (Chloroquine) or a control (vehicle). […] (FIGS. 7A-B).

The next series concerns RGCs. Kind of series: RGC survival after intravitreal NMDA in Numb cKO and control mice. Conditions: sublethal doses of NMDA in the eyes, 3 days later, Numb cKO mice compared to control. The format is in vivo, mouse. How it is done: FIGS. 5A-C: Down regulation of Tau in Numb cKO RGCs rescues survival to control levels after NMDA-mediated excitotoxicity. FIG. 5A. Immunostaining for Brn3b on retina flat mounts in control and cKO 5-month-old mice 3 days after injection of saline (left panels, FIG. 5A) or NMDA (10 mM; right panels FIG. 5A). Images were taken in the ganglion cell layer. FIGS. 5B and C. Quantification of the number of Brn3b+RGCs per mm^2 in control and cKO mice 3 days after intravitreal injection of saline (FIG. 5B) or NMDA (FIG. 5C). Error bars represent SEM, * p≤0.05, n.s. non-significant; Student's t test. FIG. 5D. Analysis of Tau levels by western blot in retinal extract 24 h, 48 h or 72 h after injection of siRNA against Tau in the eye. […] FIG. 5E. […] Quantification of number of Brn3b RGC per mm^2 in control and cKO mice 72 h after injection. […]
RGCs survival was assessed by counting Brn3b-positive cells on retina flat mounts the within four square (212 um×212 um) areas around the optic nerve disc, and averaging this number per retina and calculate with the area by multiplied by the total area of square. Cell type quantification in retinal section were made by averaging the total number of positive cells for specific markers in a […] region of the central and peripheral retina on 4 different retinal sections per animal. […]

Another series concerns Tau. The experiment in a line: Western blot of Tau fusion protein levels in HEK293T cells co-expressing Numb isoforms. Conditions: 48 hours after transfection. The format is cell-based. From the text:
FIGS. 6A-I: Isoform Numb-72 interacts with Tau and regulates Tau level. FIG. 6A. Schematic of 4 Numb isoforms, differing with the presence or the absence of an insertion (arrowhead) in PTB domain arrowhead, and the presence or the absence of an insertion in the proline-rich region (PRR). FIG. 6B. Coimmunoprecipitation of Tau and 4 isoforms of Numb in HEK293 cells. Each Numb isoform was transfected in HEK293T cells together with a flag-tagged version of Tau and immunoprecipitation was perform 24 hours later with a flag antibody and blotted for Numb. […] FIG. 6C. Detection of Tau::GFP level in presence of 4 isoforms of Numb by western blot in HEK293. All the Numb isoforms were transfected with a Tau::GFP fusion protein in HEK293T cells and the levels of Tau::GFP was analysed by western blot 48 hours after transfection. FIG. 6D. Schematic representation of DNA construct of a human-medulloblastoma-derived cell line (DAOY) expressing human Tau fused with EGFP (Lasagna-Reeves et al., 2016). Additionally, this cell line expresses DsRed upstream of an internal ribosomal entry site (IRES), which is translated independently of the Tau-GFP protein. DsRed-IRES-Tau::EGFP expressing cells were used to assess the abundance of Tau by monitoring the Tau-GFP to DsRed fluorescence ratio. FIG. 6E. DsRed and Tau::EGF expression in Daoy cells, transfected with Myc only construct. FIGS. 6F-J. Fluorescence-activated cell sorting (FACs) analysis of the 4 Numb isoforms affected 3 days after transfection on ratio DsRed versus DsRed and GFP-positives cells compared to the control (Myc-Tag). FIG. 6K Quantification represents fold change for 5 experiments, +/− SEM, **p≤0.001; n.s. non-significant Anova 1-way test.
Numb72::Myc. HEK293T cells were transfected with Jet Prime using the following constructs Tau::Flag, Tau::GFP, Numb65, Numb66, Numb71 and Numb72.
Cells were harvested, and lysed in a NP-40 buffer (50 mm TRIS, pH 8.0, 150 mm NaCl, 1.0% NP-40 with Complete Protease Inhibitor Cocktail (Roche)). For immunoblotting, 40 μg of protein samples for in vivo blot and 10 ug for in vitro blot were loaded on a 10% acrylamide SDS-PAGE gels for separation by electrophoresis migration and then transferred onto PVDF membranes using transblot machine (Millipore). […] The primary antibody was detected with an HRP-conjugated goat anti-rabbit (1:10,000; Jackson Immunoresearch) in 0.5% dry milk in TBST. […]
To determine whether increasing the levels of Numb could affect the levels of Tau, the inventors co-expressed all isoforms of Numb together with a Tau::Venus fusion protein in HEK293T cells and analyzed the levels of Tau::Venus by western blot 48 hours after transfection.
For orientation: Immunoblotting shows a protein as a band on a membrane.

Consider `CCN(CC)CCCC(C)Nc1ccnc2cc(Cl)ccc12` (stereo not drawn) [Chloroquine], for which the “effect of inhibitor on the ability of Numb72 to reduce Tau::GFP levels” value with Tau::GFP fusion protein was “neither the proteasome inhibitor nor the lysosome inhibitor abolished the ability of Numb72 to reduce Tau::GFP levels”.
Still for that read-out and setting: the same measure for `CC(C)C[C@@H](C=O)NC(=O)[C@H](CC(C)C)NC(=O)[C@H](CC(C)C)NC(=O)OCc1ccccc1` [MG132] (Cbz-Leu-Leu-Leu-aldehyde): “neither the proteasome inhibitor nor the lysosome inhibitor abolished the ability of Numb72 to reduce Tau::GFP levels”.
As to `CN[C@H](CC(=O)O)C(=O)O` [NMDA, N-methyl-D-aspartate], in the series on RGCs, the RGC numbers entry is listed as “two-fold reduction of RGC numbers”.

B1: Numb-65: 65 kDa Numb isoform with short PTB domain and short PRR; human isoform 4 (SEQ ID NO: 7) (protein)
chain: MNKLRQSFRRKKDVYVPEASRPHQWQTDEEGVRTGKCSFPVKYLGHVEVDESRGMHICEDAVKRLKATGKKAVKAVLWVSADGLRVVDEKTKDLIVDQTIEKVSFCAPDRNFDRAFSYICRDGTTRRWICHCFMAVKDTGERLSHAVGCAFAACLERKQKREKECGVTATFDASRTTFTREGSFRVTTATEQAEREEIMKQMQDAKKAETDKIVVGSSVAPGNTAPSPSSPTSPTSDATTSLEMNNPHAIPRRHAPIEQLARQGSFRGFPALSQKMSPFKRQLSLRINELPSTMQRKTDFPIKNAVPEVEGEAESISSLCSQITNAFSTPEDPFSSAPMTKPVTVVAPQSPTFQGTEWGQSSGAASPGLFQAGHRRTPSEADRWLEEVSKSVRAQQPQASAAPLQPVLQPPPPTAISQPASPFQGNAFLTSQPVPVGVVPALQPAFVPAQSYPVANGMPYPAPNVPVVGITPSQMVANVFGTAGHPQAAHPHQSPSLVRQQTFPHYEASSATTSPFFKPPAQHLNGSAAFNGVDDGRLASADRHTEVPTGTCPVDPFEAQWAALENKSKQRTNPSPTNPFSSDLQKTFEIEL
modifications: homo sapiens
Regarding B1, the “levels of Tau::Venus by western blot” value in the series with Tau is reported as “did not affect Tau levels”.

B2: Numb-66: 66 kDa Numb isoform with long PTB domain and short PRR; human isoform 2 (SEQ ID NO: 3) (protein)
chain: MNKLRQSFRRKKDVYVPEASRPHQWQTDEEGVRTGKCSFPVKYLGHVEVDESRGMHICEDAVKRLKAERKFFKGFFGKTGKKAVKAVLWVSADGLRVVDEKTKDLIVDQTIEKVSFCAPDRNFDRAFSYICRDGTTRRWICHCFMAVKDTGERLSHAVGCAFAACLERKQKREKECGVTATFDASRTTFTREGSFRVTTATEQAEREEIMKQMQDAKKAETDKIVVGSSVAPGNTAPSPSSPTSPTSDATTSLEMNNPHAIPRRHAPIEQLARQGSFRGFPALSQKMSPFKRQLSLRINELPSTMQRKTDFPIKNAVPEVEGEAESISSLCSQITNAFSTPEDPFSSAPMTKPVTVVAPQSPTFQGTEWGQSSGAASPGLFQAGHRRTPSEADRWLEEVSKSVRAQQPQASAAPLQPVLQPPPPTAISQPASPFQGNAFLTSQPVPVGVVPALQPAFVPAQSYPVANGMPYPAPNVPVVGITPSQMVANVFGTAGHPQAAHPHQSPSLVRQQTFPHYEASSATTSPFFKPPAQHLNGSAAFNGVDDGRLASADRHTEVPTGTCPVDPFEAQWAALENKSKQRTNPSPTNPFSSDLQKTFEIEL
modifications: homo sapiens
Regarding B2, in the series on Tau, the “levels of Tau::Venus by western blot” value is listed as “significantly reduced the levels of Tau”.

B3: Numb-71: 71 kDa Numb isoform with short PTB domain and long PRR; human isoform 3 (SEQ ID NO: 6) (protein)
chain: MNKLRQSFRRKKDVYVPEASRPHQWQTDEEGVRTGKCSFPVKYLGHVEVDESRGMHICEDAVKRLKATGKKAVKAVLWVSADGLRVVDEKTKDLIVDQTIEKVSFCAPDRNFDRAFSYICRDGTTRRWICHCFMAVKDTGERLSHAVGCAFAACLERKQKREKECGVTATFDASRTTFTREGSFRVTTATEQAEREEIMKQMQDAKKAETDKIVVGSSVAPGNTAPSPSSPTSPTSDATTSLEMNNPHAIPRRHAPIEQLARQGSFRGFPALSQKMSPFKRQLSLRINELPSTMQRKTDFPIKNAVPEVEGEAESISSLCSQITNAFSTPEDPFSSAPMTKPVTVVAPQSPTFQANGTDSAFHVLAKPAHTALAPVAMPVRETNPWAHAPDAANKEIAATCSGTEWGQSSGAASPGLFQAGHRRTPSEADRWLEEVSKSVRAQQPQASAAPLQPVLQPPPPTAISQPASPFQGNAFLTSQPVPVGVVPALQPAFVPAQSYPVANGMPYPAPNVPVVGITPSQMVANVFGTAGHPQAAHPHQSPSLVRQQTFPHYEASSATTSPFFKPPAQHLNGSAAFNGVDDGRLASADRHTEVPTGTCPVDPFEAQWAALENKSKQRTNPSPTNPFSSDLQKTFEIEL
modifications: homo sapiens
For B3, the “levels of Tau::Venus by western blot” value with Tau is “did not affect Tau levels”.
